pIC50: −log10 of the molar value. Where two headings read alike, the source gives them in different places.
Biological target: T1, full-length SARM1 (FL-SARM1) (Homo sapiens, UniProt Q6SZW1)
T1 sequence (Q6SZW1 28-724): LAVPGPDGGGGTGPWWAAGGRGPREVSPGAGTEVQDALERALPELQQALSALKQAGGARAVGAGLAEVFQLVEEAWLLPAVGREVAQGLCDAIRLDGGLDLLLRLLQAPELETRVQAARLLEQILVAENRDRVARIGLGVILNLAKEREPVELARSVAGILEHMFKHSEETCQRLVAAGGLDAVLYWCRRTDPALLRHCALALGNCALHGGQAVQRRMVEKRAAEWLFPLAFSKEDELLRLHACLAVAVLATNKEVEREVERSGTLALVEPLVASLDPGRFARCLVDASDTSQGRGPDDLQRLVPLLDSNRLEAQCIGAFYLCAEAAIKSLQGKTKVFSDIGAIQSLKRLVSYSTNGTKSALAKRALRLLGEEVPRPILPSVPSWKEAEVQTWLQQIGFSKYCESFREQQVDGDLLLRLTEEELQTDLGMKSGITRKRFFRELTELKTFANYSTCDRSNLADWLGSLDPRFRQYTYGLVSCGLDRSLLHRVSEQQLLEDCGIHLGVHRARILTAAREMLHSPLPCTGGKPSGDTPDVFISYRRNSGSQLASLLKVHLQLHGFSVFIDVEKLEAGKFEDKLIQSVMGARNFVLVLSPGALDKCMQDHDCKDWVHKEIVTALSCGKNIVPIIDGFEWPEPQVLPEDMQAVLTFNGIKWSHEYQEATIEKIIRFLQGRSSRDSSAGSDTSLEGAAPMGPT
Experiment: FL-SARM1 cellular lysate assay (NAD/NADH-Glo detection of remaining NAD+, NMN-activated)
Conditions: for IC50: Activity (μM) (IC50)

[1] = read-out: Activity (IC50 class), 11 point curve
[2] = Activity (IC50 class), 11 point curve

Row | Compound | IC50 (11 point curve) | pIC50 [1] | pIC50 [2]
1 | Cc1ccc(NC(=O)N2C3C[C@H](OC(F)F)C[C@H]2C3)cc1-c1ccccn1 [Example 29, trans-3-(difluoromethoxy)-N-(4-methyl-3-(pyridin-2-yl)phenyl)-6-azabicyclo[3.1.1]heptane-6-carboxamide] | 0.06 µM | 6.00 to 10.00 | –
2 | CCc1ccc(NC(=O)N2C3CCCC2C3)cc1-c1ccccn1 [Example 30, N-(4-ethyl-3-(pyridin-2-yl)phenyl)-6-azabicyclo[3.1.1]heptane-6-carboxamide] | 0.2 µM | 6.00 to 10.00 | –
3 | Cc1ccc(NC(=O)N2C3CCCC2C3)cc1-c1ncccc1C1CC1 [Example 32, N-(3-(3-cyclopropylpyridin-2-yl)-4-methylphenyl)-6-azabicyclo[3.1.1]heptane-6-carboxamide] | 6.1 µM | – | 5.00 to 6.00
4 | Cc1ccc(NC(=O)N2C3CCCC2C3)cc1-c1ncccc1C#N [Example 33, N-(3-(3-cyanopyridin-2-yl)-4-methylphenyl)-6-azabicyclo[3.1.1]heptane-6-carboxamide] | 1.2 µM | – | 5.00 to 6.00
5 | O=C(Nc1ccc(C2CC2)c(-c2ccccn2)c1)N1C2CCCC1C2 [Example 34, N-(4-cyclopropyl-3-(pyridin-2-yl)phenyl)-6-azabicyclo[3.1.1]heptane-6-carboxamide] | 1.1 µM | – | 5.00 to 6.00
6 | O=C(Nc1ccc(F)c(-c2ccc(F)cn2)c1)N1C2CCCC1C2 [Example 35, N-(4-fluoro-3-(5-fluoropyridin-2-yl)phenyl)-6-azabicyclo[3.1.1]heptane-6-carboxamide] | 3.5 µM | – | 5.00 to 6.00
7 | O=C(Nc1ccc(C2CC2)c(-c2ccc(F)cn2)c1)N1C2CCCC1C2 [Example 36, N-(4-cyclopropyl-3-(5-fluoropyridin-2-yl)phenyl)-6-azabicyclo[3.1.1]heptane-6-carboxamide] | 1.1 µM | – | 5.00 to 6.00
8 | Cc1ccc(NC(=O)N2C[C@H]3C[C@@H]2CN3c2ccccc2)cc1-c1ccccn1 [Example 38, (1R,4R)-N-(4-methyl-3-(pyridin-2-yl)phenyl)-5-phenyl-2,5-diazabicyclo[2.2.1]heptane-2-carboxamide] | 7.7 µM | – | 5.00 to 6.00
9 | Cc1ccc(NC(=O)N2C3C[C@H](O)C[C@H]2C3)cc1-c1ccccn1 [Example 39, trans-3-hydroxy-N-(4-methyl-3-(pyridin-2-yl)phenyl)-6-azabicyclo[3.1.1]heptane-6-carboxamide] | 3.8 µM | – | 5.00 to 6.00
10 | Cc1ccc(NC(=O)N2C3CCCC2C3)cc1-c1ccc(F)cn1 [Example 40, N-(3-(5-fluoropyridin-2-yl)-4-methylphenyl)-6-azabicyclo[3.1.1]heptane-6-carboxamide] | 0.08 µM | 6.00 to 10.00 | –
11 | CO[C@@H]1C[C@@H]2C[C@H](C1)N2C(=O)Nc1ccc(C)c(-c2ccccn2)c1 [Example 41, cis-3-methoxy-N-(4-methyl-3-(pyridin-2-yl)phenyl)-6-azabicyclo[3.1.1]heptane-6-carboxamide] | 0.5 µM | 6.00 to 10.00 | –
12 | C[C@@H]1C[C@@H]2C[C@H](C1)N2C(=O)Nc1ccc(C#N)c(-c2ccccn2)c1 [Example 42, cis-N-(4-cyano-3-(pyridin-2-yl)phenyl)-3-methyl-6-azabicyclo[3.1.1]heptane-6-carboxamide] | 0.05 µM | 6.00 to 10.00 | –
13 | Cc1cc(F)c(NC(=O)N2C3CCCC2C3)cc1-c1ccccn1 [Example 43, N-(2-fluoro-4-methyl-5-(pyridin-2-yl)phenyl)-6-azabicyclo[3.1.1]heptane-6-carboxamide] | 0.2 µM | 6.00 to 10.00 | –
14 | Cc1ccc(NC(=O)N2C3CCCC2C3)cc1-c1cccc(C#N)n1 [Example 44, N-(3-(6-cyanopyridin-2-yl)-4-methylphenyl)-6-azabicyclo[3.1.1]heptane-6-carboxamide] | 0.1 µM | 6.00 to 10.00 | –
15 | CO[C@H]1C[C@@H]2C[C@H](C1)N2C(=O)Nc1ccc(C)c(-c2ccccn2)c1 [Example 45, trans-3-Methoxy-N-(4-methyl-3-(pyridin-2-yl)phenyl)-6-azabicyclo[3.1.1]heptane-6-carboxamide] | 0.5 µM | 6.00 to 10.00 | –
16 | O=C(Nc1ccc(Cl)c(-c2ccc(F)cn2)c1)N1C2CCCC1C2 [Example 46, N-(4-chloro-3-(5-fluoropyridin-2-yl)phenyl)-6-azabicyclo[3.1.1]heptane-6-carboxamide] | 0.2 µM | 6.00 to 10.00 | –
17 | Cc1ccc(NC(=O)N2C3C[C@@H](C)C[C@@H]2C3)cc1-c1ncc(F)cn1 [Example 50, trans-N-(3-(5-fluoropyrimidin-2-yl)-4-methylphenyl)-3-methyl-6-azabicyclo[3.1.1]heptane-6-carboxamide] | 0.02 µM | 6.00 to 10.00 | –

Row | Compound | IC50 (11 point curve) | pIC50 [1] | pIC50 [2]
18 | Cc1ccc(NC(=O)N2C3C[C@H](C)C[C@@H]2C3)cc1-c1ncc(F)cn1 [Example 51, cis-N-(3-(5-fluoropyrimidin-2-yl)-4-methylphenyl)-3-methyl-6-azabicyclo[3.1.1]heptane-6-carboxamide] | 0.01 µM | 6.00 to 10.00 | –
19 | Cc1ccc(NC(=O)N2C3CCCC2C3)cc1-c1ncccn1 [Example 52, N-(4-methyl-3-(pyrimidin-2-yl)phenyl)-6-azabicyclo[3.1.1]heptane-6-carboxamide] | 0.5 µM | 6.00 to 10.00 | –
20 | Cc1ccc(NC(=O)N2C3CCCC2C3)cc1-c1cnccn1 [Example 53, N-(4-methyl-3-(pyrazin-2-yl)phenyl)-6-azabicyclo[3.1.1]heptane-6-carboxamide] | 0.8 µM | 6.00 to 10.00 | –
21 | Cc1ccc(NC(=O)N2C3CCCC2C3)cc1-c1cccnn1 [Example 54, N-(4-methyl-3-(pyridazin-3-yl)phenyl)-6-azabicyclo[3.1.1]heptane-6-carboxamide] | 0.5 µM | 6.00 to 10.00 | –
22 | Cc1ccc(NC(=O)N2C3CCCC2C3)cc1-c1ncc(F)cn1 [Example 55, N-(3-(5-fluoropyrimidin-2-yl)-4-methylphenyl)-6-azabicyclo[3.1.1]heptane-6-carboxamide] | 0.2 µM | 6.00 to 10.00 | –
23 | O=C(Nc1ccc(C(F)(F)F)c(-c2ccc(F)cn2)c1)N1C2CCCC1C2 [Example 56, N-(3-(5-fluoropyridin-2-yl)-4-(trifluoromethyl)phenyl)-6-azabicyclo[3.1.1]heptane-6-carboxamide] | 2.2 µM | – | 5.00 to 6.00
24 | O=C(Nc1ccc(C(F)(F)F)c(-c2ccc(F)cn2)c1)N1C2CCC1c1ccccc12 [Example 57, N-(3-(5-fluoropyridin-2-yl)-4-(trifluoromethyl)phenyl)-1,2,3,4-tetrahydro-1,4-epiminonaphthalene-9-carboxamide] | 3.7 µM | – | 5.00 to 6.00
25 | COc1cccnc1-c1cc(NC(=O)N2C3CCCC2C3)ccc1C [Example 58, N-(3-(3-methoxypyridin-2-yl)-4-methylphenyl)-6-azabicyclo[3.1.1]heptane-6-carboxamide] | 12 µM | – | < 5.00
26 | O=C(Nc1ccc(OC(F)(F)F)c(-c2ccccn2)c1)N1C2CCCC1C2 [Example 59, N-(3-(pyridin-2-yl)-4-(trifluoromethoxy)phenyl)-6-azabicyclo[3.1.1]heptane-6-carboxamide] | 0.6 µM | 6.00 to 10.00 | –
27 | COc1ccc(-c2cc(NC(=O)N3C4CCCC3C4)ccc2C)nn1 [Example 60, N-(3-(6-methoxypyridazin-3-yl)-4-methyl-phenyl)-6-azabicyclo[3.1.1]heptane-6-carboxamide] | 1.1 µM | – | 5.00 to 6.00
28 | Cc1ccc(NC(=O)N2C3CCCC2C3)cc1-c1ccc(C(F)(F)F)nn1 [Example 61, N-(4-methyl-3-(6-(trifluoromethyl)pyridazine-3-yl)phenyl)-6-azabicyclo[3.1.1]heptane-6-carboxamide] | 11 µM | – | < 5.00
29 | Cc1ccc(NC(=O)N2C3C[C@@H](C)C[C@H]2C3)cc1-c1cccnn1 [Example 62, cis-3-methyl-N-(4-methyl-3-pyridazin-3-yl-phenyl)-6-azabicyclo[3.1.1]heptane-6-carboxamide] | 0.02 µM | 6.00 to 10.00 | –
30 | Cc1ccc(NC(=O)N2C3CCCC2C3)cc1-c1cc(C#N)cnn1 [Example 63, N-(3-(5-cyanopyridazin-3-yl)-4-methylphenyl)-6-azabicyclo[3.1.1]heptane-6-carboxamide] | 0.7 µM | 6.00 to 10.00 | –
31 | C[C@@H]1CC2C[C@H](C1)N2C(=O)Nc1ccc(Cl)c(-c2cccnn2)c1 [Example 64, cis-N-(4-chloro-3-pyridazin-3-ylphenyl)-3-methyl-6-azabicyclo[3.1.1]heptane-6-carboxamide] | 0.1 µM | 6.00 to 10.00 | –
32 | COc1ccnc(-c2cc(NC(=O)N3C4CCCC3C4)ccc2C)n1 [Example 65, N-(3-(4-methoxypyrmidin-2-yl)-4-methyl-phenyl)-6-azabicyclo[3.1.1]heptane-6-carboxamide] | 2.3 µM | – | 5.00 to 6.00
33 | Cc1ccc(NC(=O)N2C3CCCC2C3)cc1-c1cc(C(F)(F)F)cnn1 [Example 66, N-(4-methyl-3-(5-(trifluoromethyl)pyridazine-3-yl)phenyl)-6-azabicyclo[3.1.1]heptane-6-carboxamide] | 0.5 µM | 6.00 to 10.00 | –

Source: US20250171462A1 (NICO Therapeutics, Inc., priority 2022, published 2025)
